Laboratory results: the supplement of paper PMC10307832

Experiments:
Test in all cases: relative viability (nuclei count vs DMSO), 5 days (fraction); higher = more cells survive
Pictilisib + Crizotinib = compound: CS(=O)(=O)N1CCN(Cc2cc3nc(-c4cccc5[nH]ncc45)nc(N4CCOCC4)c3s2)CC1 [Pictilisib] + C[C@@H](Oc1cc(-c2cnn(C3CCNCC3)c2)cnc1N)c1c(Cl)ccc(F)c1Cl [Crizotinib] (partner 1 µM)
In short: (§1)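 Medians of duplicate plates are given as relative viability. That measure is the nuclei count in treated wells divided by the count in vehicle wells. Counts were taken on 4× images of lung cancer cell lines in 1536-well plates, 5 days after pin-tool dosing the day after seeding with one drug alone or a fixed anchor-drug dose plus five library-drug doses (not always all listed) in √10 steps.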

MK-2206 + Foretinib = compound: NC1(c2ccc(-c3nc4ccn5c(=O)[nH]nc5c4cc3-c3ccccc3)cc2)CCC1 [MK-2206] + COc1cc2c(Oc3ccc(NC(=O)C4(C(=O)Nc5ccc(F)cc5)CC4)cc3F)ccnc2cc1OCCCN1CCOCC1 [Foretinib] (partner 0.25 µM)
In short: as §1

MK-2206 + OSI-027 = compound: NC1(c2ccc(-c3nc4ccn5c(=O)[nH]nc5c4cc3-c3ccccc3)cc2)CCC1 [MK-2206] + COc1cccc2cc(-c3nc([C@H]4CC[C@H](C(=O)O)CC4)n4ncnc(N)c34)[nH]c12 [OSI-027] (partner 0.5 µM)
In short: as §1

MK-2206 + AZD7762 = compound: NC1(c2ccc(-c3nc4ccn5c(=O)[nH]nc5c4cc3-c3ccccc3)cc2)CCC1 [MK-2206] + NC(=O)Nc1cc(-c2cccc(F)c2)sc1C(=O)N[C@H]1CCCNC1 [AZD7762] (partner 0.2 µM)
In short: as §1

MK-2206 + Decitabine = compound: NC1(c2ccc(-c3nc4ccn5c(=O)[nH]nc5c4cc3-c3ccccc3)cc2)CCC1 [MK-2206] + Nc1ncn([C@H]2C[C@H](O)[C@@H](CO)O2)c(=O)n1 [Decitabine] (partner 2 µM)
In short: as §1

Cell Line	relative viability (Pictilisib + Crizotinib; first compound 0.02 µM)	relative viability (Pictilisib + Crizotinib; first compound 0.06325 µM)	relative viability (Pictilisib + Crizotinib; first compound 0.6325 µM)	relative viability (Pictilisib + Crizotinib; first compound 2 µM)	relative viability (MK-2206 + Foretinib; first compound 0.01 µM)	relative viability (MK-2206 + Foretinib; first compound 0.03162 µM)	relative viability (MK-2206 + Foretinib; first compound 0.3162 µM)	relative viability (MK-2206 + Foretinib; first compound 1 µM)	relative viability (MK-2206 + OSI-027; first compound 0.01 µM)	relative viability (MK-2206 + OSI-027; first compound 0.03162 µM)	relative viability (MK-2206 + OSI-027; first compound 0.3162 µM)	relative viability (MK-2206 + OSI-027; first compound 1 µM)	relative viability (MK-2206 + AZD7762; first compound 0.01 µM)	relative viability (MK-2206 + AZD7762; first compound 0.03162 µM)	relative viability (MK-2206 + AZD7762; first compound 0.3162 µM)	relative viability (MK-2206 + AZD7762; first compound 1 µM)	relative viability (MK-2206 + Decitabine; first compound 0.01 µM)	relative viability (MK-2206 + Decitabine; first compound 0.03162 µM)	relative viability (MK-2206 + Decitabine; first compound 0.3162 µM)	relative viability (MK-2206 + Decitabine; first compound 1 µM)
H3255	0.854	0.907	0.803	0.555	0.866	0.971	0.731	0.746	0.635	0.624	0.481	0.413	0.865	0.883	0.903	0.829	0.611	0.628	0.51	0.502
Calu-6	0.751	0.969	0.728	0.582	0.939	0.99	0.837	0.937												
SW 900					0.864	0.936	0.882	0.769	0.728	0.542	0.416	0.481	0.531		0.591	0.728	0.449		0.399	0.391
NCI-H650	0.762	0.712	0.629	0.642	0.935	1.13	1.05	1.13	0.476	0.509	0.417	0.415	1	0.706	1.13	1	0.344	0.306	0.347	0.284
NCI-H2228	0.437	0.473	0.311	0.168	0.761	0.811	0.614	0.467	0.69	0.446	0.271	0.214								
NCI-H1650	1.02	1.1	1.2	0.395	1.28	1.15	0.864	0.947	0.58	0.66	0.488	0.39					0.465	0.419	0.441	0.469
NCI-H2342					0.985	1.13	1	0.901	0.649	0.614	0.555	0.484	0.527	0.478	0.423	0.376	0.687	0.792	0.787	0.629
NCI-H522									0.867	0.726	0.615	0.631	0.85	0.763	0.993	0.762	0.701	0.677	0.612	0.654
EBC-1	0.205	0.211	0.213	0.175	0.0881	0.12	0.117	0.106												
IA-LM	0.649	0.75	0.628	0.534	1.06	1.11	1.07	1.19												
COR-L 105	0.814	0.913	0.988	0.418	1.08	0.856	0.984	1.06	0.497	0.713	0.531	0.556					0.656	0.568	0.624	0.779
NCI-H1703	0.532	0.666	0.261	0.178	0.368	0.309	0.377	0.333					0.14	0.105	0.112	0.112				
NCI-H2023	0.513	0.533	0.331	0.201	0.943	0.972	0.922	0.722	0.407	0.366	0.208	0.227					0.247	0.225	0.243	0.211
A549	0.694	0.729	0.436	0.199	0.752	0.817	0.914	0.907									0.304	0.26	0.24	0.294
HCC-44	0.781	0.783	0.882	0.455					0.496	0.441	0.472	0.205	0.961	0.98	1.04	1.02	0.959	0.968	0.934	0.908
NCI-H1623					0.844	0.958	0.795	0.832	0.44	0.426	0.411	0.355								
SK-LU-1	0.957	1.17	0.945	0.697	0.844	0.776	0.814	0.791	0.349	0.325	0.224	0.325					0.648	0.592	0.613	0.555
NCI-H1563	0.924	0.889	0.761	0.581	0.882	0.988	0.832	0.769	0.756	0.727	0.626	0.6								
NCI-H1395					1.03	0.966	0.885	0.922	0.699	0.588	0.437	0.471	0.407	0.369	0.388	0.351	0.703	0.853	0.705	0.657
COR-L23	0.584	0.75	0.668	0.594	1.1	0.959	1.12	0.948	0.793	0.712	0.689	0.611					0.411	0.417	0.421	0.388
NCI-H1792	0.916	0.925	0.772	0.425					0.718	0.824	0.686	0.622	0.613	0.702	0.529	0.293	0.6	0.577	0.581	0.458
NCI-H2009	1.02	1.02	1.04	0.705	1.26	1.18	1.24	1.16	0.63	0.582	0.497	0.399					0.379	0.376	0.432	0.365
